The source made the active and inactive calls.
Tests used:
[1] = target: T1, Protein Tat (Human immunodeficiency virus type 1 group M subtype B (isolate HXB2)(HIV-1), UniProt P04608); type: functional;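 note: tat binding to TAR RNA read out by fluorescence polarization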
T1 sequence (P04608 whole entry): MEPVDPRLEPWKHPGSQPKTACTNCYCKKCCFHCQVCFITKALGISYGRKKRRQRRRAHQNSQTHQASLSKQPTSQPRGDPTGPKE

[2] = target: Induced myeloid leukemia cell differentiation protein Mcl-1 (Homo sapiens, UniProt Q07820); test: MCL1-BIM BH3 interaction inhibitors, dose response, biochemical, fluorescence polarization, BIM-BH3 peptide, 1536-well (AID 2217)
[3] = target: T2, Carboxy-terminal domain RNA polymerase II polypeptide A small phosphatase 1 (Homo sapiens, UniProt Q9GZU7); test: inhibitors of CTDSP1, concentration-response testing, biochemical assay, absorbance-based, actives from ultra-high-throughput screening (AID 540297); type: functional
T2 sequence (Q9GZU7 whole entry): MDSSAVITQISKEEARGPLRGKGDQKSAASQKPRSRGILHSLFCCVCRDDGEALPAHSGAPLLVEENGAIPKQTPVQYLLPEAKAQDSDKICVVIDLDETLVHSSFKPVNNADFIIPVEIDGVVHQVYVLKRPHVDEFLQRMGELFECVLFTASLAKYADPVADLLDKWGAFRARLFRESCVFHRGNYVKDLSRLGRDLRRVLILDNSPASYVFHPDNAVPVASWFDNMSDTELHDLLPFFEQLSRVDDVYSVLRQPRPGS

[4] = target: Bcl-2-like protein 1 (Homo sapiens, UniProt Q07817); test: BCL-XL inhibitors, dose response, selectivity assay for MCL1 inhibitor project, biochemical, fluorescence polarization, 1536-well (AID 2218)
[5] = target: NADPH oxidase 1 (Homo sapiens, UniProt Q9Y5S8); type: functional, cell-based;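 note: Cell-based assay with luminescence read-out, IC50 derived from inhibitor dose-response curves; intracellular ROS from endogenous NOX1 in intact HT29 colon cancer cells; potency of inhibitors that lower the ROS luminescence signal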
[6] = target: T3, Estrogen receptor (Homo sapiens, UniProt P03372); test: ERα–SRC-3 coactivator interaction inhibitors, confirmation, orthogonal assay, biochemical, ELISA, streptavidin-HRP readout (AID 1079)
T3 sequence (P03372 whole entry): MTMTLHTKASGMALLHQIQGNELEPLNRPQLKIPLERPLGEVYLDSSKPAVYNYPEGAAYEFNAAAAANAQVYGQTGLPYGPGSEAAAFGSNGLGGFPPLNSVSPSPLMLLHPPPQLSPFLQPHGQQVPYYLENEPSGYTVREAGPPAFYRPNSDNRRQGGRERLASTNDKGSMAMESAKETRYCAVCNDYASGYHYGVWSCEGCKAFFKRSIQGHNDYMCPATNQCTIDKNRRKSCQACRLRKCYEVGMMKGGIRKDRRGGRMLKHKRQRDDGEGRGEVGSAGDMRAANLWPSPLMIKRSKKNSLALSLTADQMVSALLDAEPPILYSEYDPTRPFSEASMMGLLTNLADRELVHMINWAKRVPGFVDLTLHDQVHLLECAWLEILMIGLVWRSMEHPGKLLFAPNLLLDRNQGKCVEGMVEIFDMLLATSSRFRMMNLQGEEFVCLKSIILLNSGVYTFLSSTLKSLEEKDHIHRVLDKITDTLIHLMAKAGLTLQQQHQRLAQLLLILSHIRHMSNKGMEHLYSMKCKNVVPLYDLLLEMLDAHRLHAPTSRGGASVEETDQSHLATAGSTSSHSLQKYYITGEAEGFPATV

[7] = enhancers of respiration in Yfh1-depleted yeast, dose response, Friedreich's ataxia, plus single-dose screen (AID 1465); type: functional;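 note: yeast depleted of Yfh1p frataxin homolog grown on glycerol needing respiration; WST-1 tetrazolium dye reduction as measure of cellular dehydrogenase metabolic activity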
[8] = target: T4, Aspartyl aminopeptidase (Plasmodium falciparum 3D7, UniProt Q8I2J3); test: Counterscreen for inhibitors of M1 and M17 aminopeptidases: QFRET-based biochemical high throughput dose response assay for inhibitors of the Plasmodium falciparum M18 Aspartyl Aminopeptidase (PFM18AAP). [Related PubChem assays: 1619 (Screening assay (M17LAP inhibitors).), 1445 (Screening assay (M1AAP inhibitors).)]
T4 sequence (Q8I2J3 whole entry): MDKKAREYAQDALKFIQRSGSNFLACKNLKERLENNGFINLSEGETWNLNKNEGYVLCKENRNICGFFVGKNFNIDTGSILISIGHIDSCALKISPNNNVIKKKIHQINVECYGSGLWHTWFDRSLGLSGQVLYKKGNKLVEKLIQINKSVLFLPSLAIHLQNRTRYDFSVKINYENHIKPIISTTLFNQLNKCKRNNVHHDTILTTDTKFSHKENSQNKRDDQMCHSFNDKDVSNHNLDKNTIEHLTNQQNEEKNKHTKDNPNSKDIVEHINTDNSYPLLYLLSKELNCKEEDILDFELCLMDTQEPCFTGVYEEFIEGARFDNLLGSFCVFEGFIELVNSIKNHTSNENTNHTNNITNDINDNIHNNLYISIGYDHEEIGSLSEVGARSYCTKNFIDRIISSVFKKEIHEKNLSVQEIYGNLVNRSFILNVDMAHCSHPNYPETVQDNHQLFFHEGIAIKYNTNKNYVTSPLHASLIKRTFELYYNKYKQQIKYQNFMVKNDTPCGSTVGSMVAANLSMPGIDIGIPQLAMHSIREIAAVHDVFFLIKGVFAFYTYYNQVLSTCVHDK

[9] = target: Procathepsin L (Homo sapiens, UniProt P07711); test: cathepsin L inhibitors, dose response, counter-screen for M1/M17 aminopeptidase inhibitor project, biochemical, QFRET, 1536-well (AID 2214)
[10] = target: fMet-Leu-Phe receptor (Homo sapiens, UniProt P21462); test: FPR ligands, dose response (AID 519); type: functional
[11] = target: T5, Leucine aminopeptidase (Plasmodium falciparum 3D7, UniProt Q8IL11); test: P. falciparum M17LAP inhibitors, primary screen, biochemical, fluorogenic H-Leu-NHMec substrate, 1536-well (AID 1619); type: functional
T5 sequence (Q8IL11 whole entry): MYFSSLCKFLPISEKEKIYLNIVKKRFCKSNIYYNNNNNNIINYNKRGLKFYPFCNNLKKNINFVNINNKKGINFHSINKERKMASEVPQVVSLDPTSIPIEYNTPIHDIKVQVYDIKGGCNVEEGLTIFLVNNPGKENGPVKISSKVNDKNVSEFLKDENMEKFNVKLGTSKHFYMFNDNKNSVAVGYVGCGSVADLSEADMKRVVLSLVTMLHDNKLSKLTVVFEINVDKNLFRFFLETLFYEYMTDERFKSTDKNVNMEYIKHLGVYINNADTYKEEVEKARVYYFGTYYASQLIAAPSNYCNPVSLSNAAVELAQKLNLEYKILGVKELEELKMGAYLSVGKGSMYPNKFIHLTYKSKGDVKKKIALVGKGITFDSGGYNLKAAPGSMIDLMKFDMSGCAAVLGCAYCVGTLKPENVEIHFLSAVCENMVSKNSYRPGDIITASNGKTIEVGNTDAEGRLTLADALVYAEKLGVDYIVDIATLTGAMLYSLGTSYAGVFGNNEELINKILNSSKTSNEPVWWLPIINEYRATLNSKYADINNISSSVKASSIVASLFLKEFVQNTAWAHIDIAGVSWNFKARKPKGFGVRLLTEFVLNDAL

[12] = Shn3 3'UTR reporter inhibitors, dose response, cell-based, Clone20 osteoblasts, firefly luciferase, cherry-picked (AID 624132); type: functional;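 note: firefly luciferase luminescence from reporter carrying the Shn3 3'UTR in osteoblasts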
[13] = C. albicans growth with fluconazole, confirmation, fluorescence, retest (AID 2467); type: functional, cell-based
[14] = cells; type: functional, cell-based
[15] = inhibitors of firefly luciferase expression or activity, dose response, H4 neuroglioma cells, luminescence (AID 1990); type: functional, cell-based
[16] = target: T6, Mannose-6-phosphate isomerase (Homo sapiens, UniProt P34949); test: inhibitors of human PMI, primary screen, biochemical, fluorescence intensity, coupled assay (AID 1209)
T6 sequence (P34949 whole entry): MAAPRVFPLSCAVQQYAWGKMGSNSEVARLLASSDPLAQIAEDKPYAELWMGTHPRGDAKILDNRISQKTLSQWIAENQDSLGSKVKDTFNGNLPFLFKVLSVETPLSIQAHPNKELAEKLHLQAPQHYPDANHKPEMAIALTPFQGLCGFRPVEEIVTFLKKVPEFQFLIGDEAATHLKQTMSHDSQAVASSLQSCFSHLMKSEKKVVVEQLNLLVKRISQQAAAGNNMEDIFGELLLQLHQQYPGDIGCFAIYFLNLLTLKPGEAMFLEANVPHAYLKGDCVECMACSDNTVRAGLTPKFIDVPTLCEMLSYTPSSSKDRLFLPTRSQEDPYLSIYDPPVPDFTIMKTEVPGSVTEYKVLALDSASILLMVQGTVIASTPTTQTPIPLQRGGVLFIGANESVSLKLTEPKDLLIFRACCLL

[17] = target: T7, Heat shock factor protein 1 (Mus musculus, UniProt P38532); test: inhibition of MG132-induced HSE-luciferase signal, confirmation, cell-based, NIH3T3, luminescence, dose retest (AID 2382); type: functional;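 note: NIH3T3 fibroblasts with HSF1-driven luciferase reporter stressed by proteasome inhibitor MG132; luminescence from HSF1-driven luciferase expression after 8 hours of MG132 stress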
T7 sequence (P38532 whole entry): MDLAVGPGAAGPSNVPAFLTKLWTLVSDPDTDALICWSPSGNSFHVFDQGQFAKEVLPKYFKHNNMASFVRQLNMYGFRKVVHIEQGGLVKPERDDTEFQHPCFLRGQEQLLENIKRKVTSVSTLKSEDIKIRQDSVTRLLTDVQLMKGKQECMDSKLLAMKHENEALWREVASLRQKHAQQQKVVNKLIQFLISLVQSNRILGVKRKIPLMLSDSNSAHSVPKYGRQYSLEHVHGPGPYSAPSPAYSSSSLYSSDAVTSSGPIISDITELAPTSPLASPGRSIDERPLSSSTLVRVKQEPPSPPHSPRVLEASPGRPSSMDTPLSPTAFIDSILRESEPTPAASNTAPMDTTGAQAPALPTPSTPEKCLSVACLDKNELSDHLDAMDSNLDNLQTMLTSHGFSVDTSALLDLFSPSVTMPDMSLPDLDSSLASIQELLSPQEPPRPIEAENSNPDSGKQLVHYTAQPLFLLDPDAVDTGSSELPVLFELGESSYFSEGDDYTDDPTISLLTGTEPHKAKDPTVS

[18] = target: Nonstructural protein 1 (Influenza A virus, UniProt Q194T2); type: functional, Influenza A virus (A/California/07/2009(H1N1))
[19] = HepG2 cell cytotoxicity, dose response, cytotoxicity control for Shn3 inhibitor project, CellTiter-Glo, cherry-picked (AID 624134); type: functional, cell-based
[20] = inhibitors of SNCA 5'UTR-driven reporter translation, confirmation, H4 neuroglioma cells, luminescence (AID 1988); type: functional, cell-based
[21] = system: INS1; test: beta cell apoptosis inhibitors, cytokine rescue, dose response, luminescence, retest (AID 449756); type: functional, cell-based; conditions: Rattus norvegicus;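 note: cell death triggered by IL-1 beta plus TNF-alpha plus IFN-gamma mixture; protective hits raise ATP signal compared with cytokine alone wells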
[22] = Luminescence Cell-Based Dose Response HTS to Identify Inhibitors of 5'UTR Stem-Loop Driven Prion Protein mRNA Translation in H4 Neuroglioblastoma Cells. [Related pubchem assays: 1827 (Project Summary), 1813 (Primary HTS)]; type: functional
[23] = control 3'UTR Renilla luciferase suppression, dose response, counter-screen for Shn3 inhibitor project, cell-based, Clone20-Shn3RL, cherry-picked (AID 624133); type: functional
[24] = inhibitors of intracellular T. cruzi replication, confirmation, NIH3T3 host cells, beta-gal luminescence (AID 2044); type: functional, cell-based;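 note: intracellular parasites grown in NIH/3T3 mouse fibroblasts as host cells; luminescent beta-galactosidase reporter signal from transgenic T. cruzi replicating inside host cells; inhibitors lower the luminescence signal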
[25] = cytotoxicity toward NIH3T3 fibroblasts, dose response, counter-screen, cell-based, ATP luminescence, mouse fibroblasts (AID 2010); type: functional;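 note: cells exposed to compound for about 90 hours before reading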
[26] = NIH-3T3 fibroblast cytotoxicity, dose response, cytotoxicity control, cell-based, fluorescence, Alamar Blue, secondary assay (AID 2327); type: functional;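 note: NIH-3T3 mouse fibroblasts cultured with fluconazole at 8 µg/mL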
[27] = cells; type: functional, cell-based; remark: listed apart in the source
[28] = cytotoxicity in KRAS-transformed pancreatic duct cells, primary screen, cell-based, fluorescence, HTS (AID 431); type: functional; conditions: Homo sapiens;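 note: cell line used: HPDE-C7K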
[29] = target: T3, Estrogen receptor; test: potentiators of ERα–SRC-1 coactivator binding, dose response, biochemical, TR-FRET, ERα LBD (AID 737)
[30] = cytotoxicity in HPDE-C7 cells, cell-based, fluorescence, HTS (AID 430); type: functional; conditions: Homo sapiens

Chain of Induced myeloid leukemia cell differentiation protein Mcl-1 (Q07820 whole entry, the tested form may be a part): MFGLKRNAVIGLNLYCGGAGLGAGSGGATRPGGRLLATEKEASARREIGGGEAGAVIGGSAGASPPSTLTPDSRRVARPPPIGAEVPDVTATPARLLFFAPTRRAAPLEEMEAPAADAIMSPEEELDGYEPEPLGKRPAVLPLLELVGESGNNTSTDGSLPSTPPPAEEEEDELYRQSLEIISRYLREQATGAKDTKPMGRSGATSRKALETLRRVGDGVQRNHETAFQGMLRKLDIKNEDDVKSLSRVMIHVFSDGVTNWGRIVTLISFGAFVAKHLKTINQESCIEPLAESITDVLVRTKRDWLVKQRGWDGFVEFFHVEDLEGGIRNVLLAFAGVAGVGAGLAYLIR
Chain of Procathepsin L (P07711 whole entry): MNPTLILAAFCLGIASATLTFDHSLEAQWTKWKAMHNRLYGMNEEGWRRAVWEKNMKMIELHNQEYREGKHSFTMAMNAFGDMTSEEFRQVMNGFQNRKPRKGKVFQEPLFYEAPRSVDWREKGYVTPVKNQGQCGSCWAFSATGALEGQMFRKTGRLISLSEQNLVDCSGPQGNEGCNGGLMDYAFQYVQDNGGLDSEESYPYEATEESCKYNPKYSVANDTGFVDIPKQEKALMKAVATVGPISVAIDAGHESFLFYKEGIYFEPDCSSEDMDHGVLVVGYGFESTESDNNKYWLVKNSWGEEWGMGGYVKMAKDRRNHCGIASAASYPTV
Chain of Bcl-2-like protein 1 (Q07817 whole entry): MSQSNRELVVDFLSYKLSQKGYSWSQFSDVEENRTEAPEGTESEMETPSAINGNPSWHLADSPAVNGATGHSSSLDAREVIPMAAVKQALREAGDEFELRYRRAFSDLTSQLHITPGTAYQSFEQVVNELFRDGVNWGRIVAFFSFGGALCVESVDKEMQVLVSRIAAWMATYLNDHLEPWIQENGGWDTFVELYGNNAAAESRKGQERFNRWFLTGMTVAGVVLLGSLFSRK
Chain of NADPH oxidase 1 (Q9Y5S8 whole entry): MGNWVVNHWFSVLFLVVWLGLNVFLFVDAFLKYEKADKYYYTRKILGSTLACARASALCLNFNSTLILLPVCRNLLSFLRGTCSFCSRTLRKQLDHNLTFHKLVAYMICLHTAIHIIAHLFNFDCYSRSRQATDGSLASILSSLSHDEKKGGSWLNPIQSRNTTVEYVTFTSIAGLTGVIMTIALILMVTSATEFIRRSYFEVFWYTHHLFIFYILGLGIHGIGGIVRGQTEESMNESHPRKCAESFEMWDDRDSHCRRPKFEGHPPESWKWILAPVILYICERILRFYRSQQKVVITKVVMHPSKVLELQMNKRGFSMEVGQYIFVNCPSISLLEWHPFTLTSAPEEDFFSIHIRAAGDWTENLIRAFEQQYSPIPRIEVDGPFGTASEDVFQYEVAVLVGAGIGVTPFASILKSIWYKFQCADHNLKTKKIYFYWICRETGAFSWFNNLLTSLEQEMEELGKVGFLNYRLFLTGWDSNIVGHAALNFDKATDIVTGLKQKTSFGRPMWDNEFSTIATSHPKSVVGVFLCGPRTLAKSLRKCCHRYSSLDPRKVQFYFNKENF
Chain of Nonstructural protein 1 (Q194T2 whole entry): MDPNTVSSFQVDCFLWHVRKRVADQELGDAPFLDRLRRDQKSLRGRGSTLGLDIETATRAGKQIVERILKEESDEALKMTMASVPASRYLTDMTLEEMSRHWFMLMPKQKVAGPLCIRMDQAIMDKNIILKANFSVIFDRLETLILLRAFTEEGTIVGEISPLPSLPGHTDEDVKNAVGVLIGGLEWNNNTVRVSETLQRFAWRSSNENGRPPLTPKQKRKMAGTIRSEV
Chain of fMet-Leu-Phe receptor (P21462 whole entry): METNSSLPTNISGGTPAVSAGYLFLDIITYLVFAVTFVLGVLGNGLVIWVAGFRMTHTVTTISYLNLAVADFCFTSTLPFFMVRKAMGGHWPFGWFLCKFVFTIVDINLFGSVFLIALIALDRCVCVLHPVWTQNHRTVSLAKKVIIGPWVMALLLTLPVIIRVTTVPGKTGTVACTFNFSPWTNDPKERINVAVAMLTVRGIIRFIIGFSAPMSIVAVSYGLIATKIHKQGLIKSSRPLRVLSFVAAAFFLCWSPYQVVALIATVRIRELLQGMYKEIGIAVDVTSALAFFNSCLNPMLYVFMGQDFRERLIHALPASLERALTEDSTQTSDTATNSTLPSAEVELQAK

Cc1ccc(NC(=O)c2cc(-c3ccc(C)o3)nc3ccccc23)nc1
IC50 [1]: > 100 µM (active) | IC50 [2]: > 109 µM (not active) | IC50 [3]: 4.78 µM (active) | IC50 [4]: > 109 µM (not active)

COc1cc(-c2nc3c4ccccc4c4ccccc4c3[nH]2)ccc1O
IC50 [5]: 1.15 µM (active)

O=C(CCCn1c(=S)[nH]c2ccccc2c1=O)N1CCC(c2ccccc2)CC1
IC50 [6]: 0.05 µM (not active)

S=C(NCc1ccc2c(c1)OCO2)Nc1ccc(-c2nc3ccccc3[nH]2)cc1
EC50 [7]: > 100 µM (active)

CCOC(=O)c1c(NC(=O)C2C3CCC(O3)C2C(=O)O)sc(C)c1-c1ccc(C)cc1 (stereo not given)
IC50 [8]: > 73.5 µM (not active) | IC50 [9]: > 59.6 µM (not active) | Ki [10]: 63.3 µM (inactive) | IC50 [11]: 6.69 µM (active)

Oc1c(CN2CCOCC2)cc(COCc2ccccc2)c2cccnc12
AC50 [12]: 1.28 µM (active) | EC50 [13]: 1.28 µM (active) | EC50 [14]: > 350 µM (not active) | EC50 [15]: 4.97 µM (active) | IC50 [16]: 25.7 µM (active) | EC50 [17]: 36.3 µM (active) | IC50 [18]: 4.95 µM (active) | AC50 [19]: 2.13 µM (active) | EC50 [20]: 4.24 µM (active) | AC50 [21]: 2.39 µM (active) | EC50 [22]: 5.43 µM (active) | AC50 [23]: 3.15 µM (active) | EC50 [24]: 1.26 µM (active) | EC50 [25]: 28 µM (active) | EC50 [26]: > 160 µM (inactive) | EC50 [27]: 6.33 µM (active)

CCC(=O)Oc1ccc(C(CC)C(CC)c2ccc(OC(=O)CC)cc2)cc1 (stereo not given)
EC50 [28]: 10.7 µM (active) | EC50 [29]: 10.2 µM (active) | EC50 [30]: 9.19 µM (active)

— ChEMBL document CHEMBL1201862, “PubChem BioAssay data set” (2004)
